Laboratory results published in patent US10851088B2, “Polymorphs and solid forms of a pyrimidinylamino-pyrazole compound, and methods of production” (Denali Therapeutics Inc., priority 2017, dated 2020).
≈ marks a conversion by molar mass, not a printed value. Like-named read-outs stand apart in the source and are kept apart here.

How the values were obtained:
Format in all cases: physicochemical
[1] = Dynamic vapor sorption (DVS) hygroscopicity test; details: for water uptake: at 80% RH at 25° C., DVS
Procedure: To investigate the solid form stability as a function of humidity, Dynamic Vapor Sorption (DVS) isotherm plots of Form A, Form C, and Form D were collected at 25° C. between 0 and 95% relative humidity (RH) by the procedures of Example 8. […] DVS was measured via a SMS (Surface Measurement Systems) DVS Intrinsic. The relative humidity at 25° C. were calibrated against deliquescence points of LiCl, Mg(NO3)2 and KCl. [table]

[2] = 24 hrs solubility in H2O at RT (HPLC of supernatant, XRPD of residual solids)
Procedure: The solubility at 24 hrs of Forms A, C, and D was measured in water at RT. Form A, Form C, and Form D samples were suspended into H2O with dose concentration of 10 mg/mL. After slurrying the suspensions at RT for 24 hrs (1000 rpm), the supernatants were separated for HPLC solubility measurement and the residual solids were characterized by XRPD.

[3] = Slurry competition experiments (thermodynamic stability of anhydrate forms); details: for thermodynamic stability, Form C versus Form D: slurry competition
Procedure: Slurry competition experiments were performed to investigate the inter-conversion relationship between three anhydrates (Form A, C, and D). […] Slurry competition was first performed between Form A and C at RT and 50° C. Form C was obtained after slurrying for 40 hrs at RT or 2 hrs at 50° C. […] Therefore, slurry competition was further performed between Form C and D in various solvent systems. The solvent effect of H2O was discovered to be associated with the inter-conversion relationship between Form C and D, with form D forming under anhydrous conditions.
To understand the thermodynamic stability relationship between Form A and Form C, slurry competition experiments were performed at RT and 50° C. in different solvent systems, including acetone/n-heptane, methyl tert-butylether (MTBE)/heptane, and water. Form A was used to saturate the corresponding solvent before filtered to obtain a near-saturated solution. Equal amount of Form A and C samples were weighed and then mixed with the prepared near-saturated solution to form a new suspension, which was stirred magnetically (˜1000 rpm) at RT and 50° C. The XRPD patterns of remaining solids after slurry were measured. […] Form D was obtained via slurrying Form A in MTBE/n-heptane (1:4, v/v) at RT for 1 day, with the addition of Form D sample as seeds.
To further understand the thermodynamic stability relationship between Form C and Form D, slurry competition experiments were performed at RT and 70° C. in various solvent systems, including methyl tert-butylether/heptane, water, cyclohexane, and ethanol/isooctane. Equal amount of Form C and D samples were weighed and then mixed with the near-saturated solution of Form A in corresponding solvent to form a suspension, which was stirred magnetically (˜1000 rpm) at different temperatures. The XRPD patterns of remaining solids after slurry were measured. […] Water content in process solvents were monitored and controlled during the manufacturing of Form C or D samples. […] Water activity (or relative humidity) was monitored and controlled during the manufacture and storage of Form C or D samples.

[4] = Approximate solubility in solvents, used to choose slurry solvent systems
[5] = 24 hrs slurry at 10 mg/mL dose concentration, HPLC

SMILES | water uptake [1] [%] | form change after 24 hrs solubility evaluation (XRPD of residual solids) [2] | solubility at 24 h ([2]; water, thermodynamic from solid, 24 hrs slurry at 10 mg/mL dose concentration, HPLC) [µg/mL] | Hygroscopicity ([1]; DVS at 25° C., 0 to 95% RH) | thermodynamic stability, Form A versus Form C ([3]; slurry competition of equal amounts of Form A and C, RT and 50° C., various solvents) | thermodynamic stability, Form C versus Form D ([3]; water activity aw≥0.5 at RT) | 24 Hrs Solubility in H2O at RT [2, 5] [mg/mL] | thermodynamic stability, Form C versus Form D ([3]; water activity aw≤0.2 at RT) | solubility ([4]; H2O and non-polar solvents (e.g., n-heptane, cyclohexane), water, read-out: solubility in H2O and non-polar solvents) [mg/mL] | solubility ([4]; organic solvent or mixture, solvents other than H2O and non-polar solvents, read-out: solubility in other solvents) [mg/mL]
CNc1nc(Nc2cn(C(C)(C)C#N)nc2C)ncc1C(F)(F)F [Form A, 2-methyl-2-(3-methyl-4-(4-(methylamino)-5-(trifluoromethyl)pyrimidin-2-ylamino)-1H-pyrazol-1-yl)propanenitrile] | 0.04 | No form change | 180 (≈ 530 µM) | – | – | – | – | – | – | –
CNc1nc(Nc2cn(C(C)(C)C#N)nc2C)ncc1C(F)(F)F [Form C, 2-methyl-2-(3-methyl-4-(4-(methylamino)-5-(trifluoromethyl)pyrimidin-2-ylamino)-1H-pyrazol-1-yl)propanenitrile] | 0.6 | No form change | – | slightly hygroscopic | thermodynamically more stable than Form A | more stable | 0.14 | – | – | –
CNc1nc(Nc2cn(C(C)(C)C#N)nc2C)ncc1C(F)(F)F [Form D, 2-methyl-2-(3-methyl-4-(4-(methylamino)-5-(trifluoromethyl)pyrimidin-2-ylamino)-1H-pyrazol-1-yl)propanenitrile] | 0.05 | No form change | – | – | – | – | 0.11 | thermodynamically more stable | – | –
CNc1nc(Nc2cn(C(C)(C)C#N)nc2C)ncc1C(F)(F)F [Formula I compound, 2-methyl-2-(3-methyl-4-(4-(methylamino)-5-(trifluoromethyl)pyrimidin-2-ylamino)-1H-pyrazol-1-yl)propanenitrile] | – | – | – | – | – | – | – | – | < 2 | > 40
